Measurements reported in patent US20170267708A1, “C-4" POSITION SUBSTITUTED MACROLIDE DERIVATIVE” (priority 2014, published 2017).
≈ marks a conversion by molar mass, not a printed value. Read-outs that look alike come from different tables or passages of the source.

Experiments:
[1] = system: Streptococcus pneumoniae 1101 strain; assay: MIC against the strain of Test Example 4; format: cell-based; conditions: notes for FIG. 2, erm(B) strain
Experimental: (§1) The notes for FIG. 2 are as follows. As for significant difference relative to the medium administration group, significance was determined by the Steel test, and the symbols * and ** mean p<0.05 and p<0.01, respectively.

[2] = system: Streptococcus pneumoniae 1028 strain; assay: MIC against the strain of Test Example 5; format: cell-based; conditions: notes for FIG. 3, mef(A) strain
Experimental: (§2) The notes for FIG. 3 are as follows. As for significant difference relative to the medium administration group, significance was determined by the Steel test, and the symbols * and ** mean p<0.05 and p<0.01, respectively.

[3] = system: Streptococcus pneumoniae 1101 strain; assay: Therapeutic effect test in erythromycin resistant pneumococcus (harboring erm(B) gene)-infected animals; format: in vivo, mice; conditions: for number of living cells in the lung: CBA/JN mice, 3 days after inoculation, average±standard error
Experimental: As a bacterium, the Streptococcus pneumoniae 1101 strain (clinically isolated strain) was used. A frozen stock of the strain used was added to the Todd Hewitt broth supplemented with 30 vol % inactivated horse serum, and the bacterium was cultured until the turbidity (OD600) became about 0.3. The culture medium was diluted with the Todd Hewitt broth supplemented with 30 vol % inactivated horse serum to prepare a bacterial suspension for inoculation. The bacterial suspension for inoculation (0.05 mL each) was intranasally administered to mice (CBA/JN, male, 5 weeks old) for infection. The inoculated bacterial amount was 7.50×10^4 CFU/mouse, or 1.65×10^5 CFU/mouse. From the next day of the inoculation, the compound of Example 1 represented by the formula [1] […] The numbers of live cells in the lung observed 3 days after the inoculation are shown in FIG. 2 (each group consisted of 5 or 6 mice, average±standard error).
as §1

[4] = system: Streptococcus pneumoniae 1028 strain; assay: Therapeutic effect test in erythromycin resistant pneumococcus (harboring mef(A) gene)-infected animals; format: in vivo, mice; conditions: for number of living cells in the lung: CBA/JN mice, 3 days after inoculation
Experimental: As a bacterium, the Streptococcus pneumoniae 1028 strain (clinically isolated strain) was used. A frozen stock of the strain used was added to the Todd Hewitt broth supplemented with 30 vol % inactivated horse serum, and the bacterium was cultured until the turbidity (OD600) became about 0.3. The culture was diluted with the Todd Hewitt broth supplemented with 30 vol % inactivated horse serum to prepare a bacterial suspension for inoculation. The bacterial suspension for inoculation (0.05 mL each) was intranasally administered to mice (CBA/JN, male, 5 weeks old) for infection. The inoculated bacterial amount was 3.45×10^4 CFU/mouse, or 3.90×10^4 CFU/mouse. From the next day of the inoculation, the compound of Example 1 represented by the formula [1] (3, 10, 30 and 100 mg/kg) or a medium (mixture of equivalent volumes of a 0.1 mol/L lactobionic acid solution and a 0.5 w/v % sodium hydrogencarbonate solution) was orally administered to the mice once a day for 2 days. The numbers of living cells in the lung observed 3 days after the inoculation are shown in FIG. 3 (each group consisted of 5 or 6 mice, average±standard error).
as §2

[5] = system: Haemophilus influenzae ATCC 43095 strain; assay: Therapeutic effectiveness in Haemophilus influenzae-infected animals; format: in vivo, mice; conditions: for number of living cells in the lung: ICR mice, 3 days after inoculation, average±standard error
Experimental: As a bacterium, the Haemophilus influenzae ATCC 43095 strain (bacterium symbol A) was used. Cells of the bacterium cultured overnight on a chocolate agar medium were collected, suspended in a Hemophilus susceptibility test medium or the brain heart infusion medium supplemented with Fildes Enrichment, and then cultured overnight. The culture was diluted with the Hemophilus susceptibility test medium or the brain heart infusion medium supplemented with Fildes Enrichment to prepare a bacterial suspension for inoculation. The bacterial suspension for inoculation (0.05 mL each) was intratracheobronchially administered to mice (ICR, male, 4 weeks old) for infection. The inoculated bacterial amount was 2.25×10^6 CFU/mouse, or 9.00×10^5 CFU/mouse. From the next day of the inoculation, the compound represented by the formula [1] of Example 1 (100 and 200 mg/kg) or a medium (mixture of equivalent volumes of a 0.1 mol/L lactobionic acid solution and a 0.5 w/v % sodium hydrogencarbonate solution) was orally administered to the mice once a day for 2 days. The numbers of living cells in the lung observed 3 days after the inoculation are shown in FIG. 1 (each group consisted of 6 mice, average±standard error).
The notes for FIG. 1 are as follows. As for significant difference relative to the medium administration group, significance was determined by the Steel test, and the symbols * and ** mean p<0.05 and p<0.01, respectively. The MIC value of the compound of Example 1 represented by the formula [I] was 4 μg/mL, and the MIC value of the compound of Reference Example 4 represented by the formula [3] was 4 μg/mL.
In the following descriptions, the numbers of living cells in the lung as the test results may be represented in terms of common logarithm of number of live cells in the lung (CFU/lung) (common logarithm is henceforth indicated as log).

[6] = system: 39 kinds of clinically isolated strains of Hemophilus influenzae; assay: Hemophilus influenzae susceptibility test; format: cell-based; conditions: 39 clinically isolated strains
Experimental: (§3) In vitro antibacterial activities of the compound of the present invention, the compound represented by the formula [1] of Example 1, against various test bacteria were measured according to the microbroth dilution method (CLSI method). The activities of the compound of Reference Example 4 represented by the formula [3] was similarly measured. The MIC values (minimum inhibitory concentration, μg/ml) for the test bacteria of the bacterium symbols A, B, C, D, E, F, G, H, I, J, K, and L are shown in Table 2.
Drug susceptibility of 39 kinds of clinically isolated strains of Hemophilus influenzae was evaluated in the same manner as that of Test Example 1.

[7] = system: Haemophilus influenzae ATCC43095; assay: In vitro antibacterial activity, microbroth dilution (CLSI method); format: cell-based; conditions: for MIC: Haemophilus influenzae, ATCC43095
Experimental: as §3

[8] = system: Streptococcus pneumoniae MSC07465; assay: as above; format: cell-based; conditions: bacterium symbol E
Experimental: as §3

[9] = system: Streptococcus pyogenes ATCC12344; assay: as above; format: cell-based; conditions: bacterium symbol I
Experimental: as §3

[10] = system: Streptococcus pyogenes MSC07811; assay: as above; format: cell-based; conditions: bacterium symbol K
Experimental: as §3

[11] = system: Streptococcus aureus ATCC29213; assay: as above; format: cell-based; conditions: bacterium symbol L
Experimental: as §3

[12] = system: Streptococcus pneumoniae ATCC49619; assay: as above; format: cell-based; conditions: bacterium symbol D
Experimental: as §3

[13] = system: Haemophilus influenzae MSC17946; assay: as above; format: cell-based; conditions: bacterium symbol B
Experimental: as §3

[14] = system: Streptococcus pneumoniae MSC08607; assay: as above; format: cell-based; conditions: bacterium symbol F
Experimental: as §3

[15] = system: Streptococcus pneumoniae MSC07365; assay: as above; format: cell-based; conditions: bacterium symbol H
Experimental: as §3

[16] = system: Streptococcus pneumoniae ATCC700904; assay: as above; format: cell-based; conditions: bacterium symbol G
Experimental: as §3

[17] = system: Streptococcus pyogenes MSC07812; assay: as above; format: cell-based; conditions: bacterium symbol J
Experimental: as §3

[18] = system: Haemophilus influenzae NSC17960; assay: as above; format: cell-based; conditions: bacterium symbol C
Experimental: as §3

[19] = 30 mg/kg orally once a day for 2 days
[20] = 100 mg/kg orally once a day for 2 days
[21] = 10 mg/kg orally once a day for 2 days, average±standard error
[22] = 30 mg/kg orally once a day for 2 days, 1.30 = lower than detection limit
[23] = 100 mg/kg orally once a day for 2 days, 1.30 = lower than detection limit
[24] = 200 mg/kg orally once a day for 2 days

CC[C@H]1OC(=O)[C@H](C)[C@@H](O[C@H]2C[C@@](C)(OC)[C@@](O)(CN(C)CCN(CC)CC)[C@H](C)O2)[C@H](C)[C@@H](O[C@@H]2O[C@H](C)C[C@H](N(C)C)[C@H]2O)[C@@](C)(OC)C[C@@H](C)C(=O)[C@H](C)[C@H]2N(CCCS(C)(=O)=O)C(=O)O[C@]12C [Reference Example 4, reference compound]
MIC ([1]; Streptococcus pneumoniae, 1101STRAIN): 0.12 µg/mL (≈ 0.116 µM)
MIC ([2]; Streptococcus pneumoniae, 1028STRAIN): 0.03 µg/mL (≈ 0.029 µM)
number of living cells in the lung ([3]; 10 mg/kg orally once a day for 2 days): 5.86±0.12 log (CFU/lung)
number of living cells in the lung [3, 19]: 5.22±0.16 log (CFU/lung)
number of living cells in the lung [3, 20]: 3.65±0.36 log (CFU/lung)
number of living cells in the lung [4, 21]: 5.67±0.38 log (CFU/lung)
number of living cells in the lung [4, 22]: 1.30±0.00 log (CFU/lung)
number of living cells in the lung [4, 23]: 1.30±0.00 log (CFU/lung)
number of living cells in the lung [5, 20]: 4.37±0.27 log (CFU/lung)
number of living cells in the lung [5, 24]: 2.53±0.23 log (CFU/lung)
MIC50 [6]: 4 µg/mL (≈ 3.86 µM)
MIC90 [6]: 8 µg/mL (≈ 7.73 µM)
MIC ([7]; bacterium symbol A, read-out: MIC (minimum inhibitory concentration)): 4 µg/mL (≈ 3.86 µM)
MIC ([7]; notes for FIG. 1, strain of Test Example 3, read-out: MIC value): 4 µg/mL (≈ 3.86 µM)
MIC ([8]; Streptococcus pneumoniae, MSC07465, read-out: MIC (minimum inhibitory concentration)): 0.03 µg/mL (≈ 0.029 µM)
MIC ([9]; Streptococcus pyogenes, ATCC12344, read-out: MIC (minimum inhibitory concentration)): 0.06 µg/mL (≈ 0.0579 µM)
MIC ([10]; Streptococcus pyogenes, MSC07811, read-out: MIC (minimum inhibitory concentration)): 4 µg/mL (≈ 3.86 µM)
MIC ([11]; Streptococcus, ATCC29213, read-out: MIC (minimum inhibitory concentration)): 0.5 µg/mL (≈ 0.483 µM)
MIC ([12]; Streptococcus pneumoniae, ATCC49619, read-out: MIC (minimum inhibitory concentration)): 0.03 µg/mL (≈ 0.029 µM)
MIC ([13]; Haemophilus influenzae, MSC17946, read-out: MIC (minimum inhibitory concentration)): 8 µg/mL (≈ 7.73 µM)
MIC ([14]; Streptococcus pneumoniae, MSC08607, read-out: MIC (minimum inhibitory concentration)): 0.06 µg/mL (≈ 0.0579 µM)
MIC ([15]; Streptococcus pneumoniae, MSC07365, read-out: MIC (minimum inhibitory concentration)): 4 µg/mL (≈ 3.86 µM)
MIC ([16]; Streptococcus pneumoniae, ATCC700904, read-out: MIC (minimum inhibitory concentration)): 0.12 µg/mL (≈ 0.116 µM)
MIC ([17]; Streptococcus pyogenes, MSC07812, read-out: MIC (minimum inhibitory concentration)): 0.25 µg/mL (≈ 0.241 µM)
MIC ([18]; Haemophilus influenzae, NSC17960, read-out: MIC (minimum inhibitory concentration)): 4 µg/mL (≈ 3.86 µM)

CCNC(=O)CN1C(=O)O[C@]2(C)[C@@H](CC)OC(=O)[C@H](C)[C@@H](O[C@H]3C[C@@](C)(OC)[C@@](O)(CN(C)CCN(C(C)C)C(C)C)[C@H](C)O3)[C@H](C)[C@@H](O[C@@H]3O[C@H](C)C[C@H](N(C)C)[C@H]3O)[C@@](C)(OC)C[C@@H](C)C(=O)[C@H](C)[C@@H]12 [Example 1]
MIC value [1]: 0.25 µg/mL (≈ 0.243 µM)
MIC value [2]: 0.12 µg/mL (≈ 0.117 µM)
number of living cells in the lung [3, 19]: 4.14±0.19 log (CFU/lung)
number of living cells in the lung [3, 20]: 2.28±0.24 log (CFU/lung)
therapeutic effectiveness relative to the compound of Reference Example 4 ([3]; overall conclusion of Test Example 4): superior
number of living cells in the lung ([4]; 3 mg/kg orally once a day for 2 days, average±standard error): 6.45±0.18 log (CFU/lung)
number of living cells in the lung [4, 21]: 1.30±0.00 log (CFU/lung)
number of living cells in the lung [4, 22]: 1.30±0.00 log (CFU/lung)
number of living cells in the lung [4, 23]: 1.30±0.00 log (CFU/lung)
therapeutic effectiveness relative to the compound of Reference Example 4 ([4]; overall conclusion of Test Example 5): superior
number of living cells in the lung [5, 20]: 3.54±0.49 log (CFU/lung)
number of living cells in the lung [5, 24]: 2.83±0.53 log (CFU/lung)
therapeutic effectiveness relative to the compound of Reference Example 4 ([5]; overall conclusion of Test Example 3): comparable
MIC50 [6]: 4 µg/mL (≈ 3.89 µM)
MIC90 [6]: 8 µg/mL (≈ 7.78 µM)
MIC (minimum inhibitory concentration) ([7]; bacterium symbol A): 4 µg/mL (≈ 3.89 µM)
MIC value ([7]; notes for FIG. 1, strain of Test Example 3): 4 µg/mL (≈ 3.89 µM)
MIC (minimum inhibitory concentration) [8]: 0.03 µg/mL (≈ 0.0292 µM)
MIC (minimum inhibitory concentration) [9]: 0.06 µg/mL (≈ 0.0583 µM)
MIC (minimum inhibitory concentration) [10]: 2 µg/mL (≈ 1.94 µM)
MIC (minimum inhibitory concentration) [11]: 1 µg/mL (≈ 0.972 µM)
MIC (minimum inhibitory concentration) [12]: 0.06 µg/mL (≈ 0.0583 µM)
MIC (minimum inhibitory concentration) [13]: 8 µg/mL (≈ 7.78 µM)
MIC (minimum inhibitory concentration) [14]: 0.06 µg/mL (≈ 0.0583 µM)
MIC (minimum inhibitory concentration) [15]: 4 µg/mL (≈ 3.89 µM)
MIC (minimum inhibitory concentration) [16]: 0.12 µg/mL (≈ 0.117 µM)
MIC (minimum inhibitory concentration) [17]: 0.12 µg/mL (≈ 0.117 µM)
MIC (minimum inhibitory concentration) [18]: 4 µg/mL (≈ 3.89 µM)
